Reference: patent US20030017148A1, “Prevention of insulin-dependent diabetes, complications thereof, or allograft rejection by inhibition of cyclooxygenase-2 activity” (Oklahoma Medical Research Foundation, priority 2000, published 2003)
Where “and” joins values, the source holds several entries; their conditions need not be identical. Identical values can stand only once.

Key:
STZ-induced IDDM [1] = test: Multiple low-dose STZ-induced IDDM in mice, NS-398 treatment; assay type: in vivo
Description: Chemicals: Streptozotocin was obtained from Sigma Chemical Company (St. Louis, Mo.). NS-398 was obtained from Cayman Chemicals (Ann Arbor, Mich.). Determination of blood glucose level was performed using the glucose oxidase kit obtained from Sigma Chemical Co. Total glycated hemoglobin (Hb A1) was measured using a kit from Sigma. Animal treatment: Ball/c or CD-1 mice (male, 6-8 weeks) from Charles-River (Indianapolis, Ind.) were used in this study. STZ was dissolved in citrate buffer pH 4.5 and was administered within 10 minutes of its dissolution. Animals receiving NS-398 treatment were injected with this compound 15 min prior to STZ treatment. Since STZ is both toxic and carcinogenic, extreme caution was practiced in its handling. NS-398 was dissolved in dimethylsulfoxide (DMSO). […] To control for the effect of DMSO, mice in the STZ group received 40 μl injections of DMSO for the same number of days as the STZ+NS-398 group. At different time intervals after the treatments, tail tip blood was drawn and used for the measurement of blood glucose levels and/or glycated hemoglobin. [table] […] PBS (control group) for 5 consecutive days. […] The STZ group received only STZ injections. […] For histological studies, 35 days following the treatments (multiple low-dose STZ±NS-398), mice were anaesthetized and perfused with 4% paraformaldehyde and pancreata were removed and post-fixed for an additional day. The paraffin sections (6 μ) were stained with Gambier's aldehyde fuchsia for the identification of pancreatic β cells. Untreated mice were used as controls for these studies. Statistical analyses: Statistical analyses of the data were performed using one way analysis of variance (Anoa) followed by Student's t-test. In order to determine whether NS-398 treatment would protect the animals against the diabetogenic action of STZ, blood glucose level, and the level of glycated hemoglobin (a marker of chronic hyperglycemia) were monitored in the mice treated with STZ in the absence and presence of NS-398. Histological studies were also performed on the pancreata of the treated animals in order to obtain morphological information on the status of the islet β cells.

STZ-induced IDDM [2] = test: Multiple low-dose STZ-induced IDDM in CD-1 mice, PDTC treatment; assay type: in vivo; conditions: for Blood Glucose Level: STZ 40 mg/Kg 5 days, PDTC 150 mg/Kg daily, 100 mg/Kg from day 7, 11 treatments
Description: Method. CD-1 mice were divided into two groups (6 mice/group). Group 1 was treated with STZ (40 mg/Kg dissolved in cold sodium citrate buffer, pH 4.5) for 5 consecutive days. Group 2 was treated with STZ as described and received daily treatments of PDTC (150 mg/Kg, dissolved in physiological saline) starting from day 1 of STZ treatment. The PDTC dose was reduced to 100 mg/Kg at day 7 of the treatment. A total of 11 daily treatments of PDTC were given to the mice in this group (up to day 11 from the start of STZ treatment). Blood glucose levels were periodically determined in these mice.

[3] = system: high-dose STZ-induced IDDM; test: Single high-dose STZ-induced IDDM in mice, NS-398 pre-treatment; assay type: in vivo; conditions: 48 h after single STZ 220 mg/Kg; NS-398 10 mg/Kg 15 min prior to STZ
Description: Animal treatment: Ball/c or CD-1 mice (male, 6-8 weeks) from Charles-River (Indianapolis, Ind.) were used in this study. STZ was dissolved in citrate buffer pH 4.5 and was administered within 10 minutes of its dissolution. Animals receiving NS-398 treatment were injected with this compound 15 min prior to STZ treatment. Since STZ is both toxic and carcinogenic, extreme caution was practiced in its handling. NS-398 was dissolved in dimethylsulfoxide (DMSO). […] To control for the effect of DMSO, mice in the STZ group received 40 μl injections of DMSO for the same number of days as the STZ+NS-398 group. At different time intervals after the treatments, tail tip blood was drawn and used for the measurement of blood glucose levels and/or glycated hemoglobin. [table] […] PBS (control group) for 5 consecutive days. […] The STZ group received only STZ injections.

[4] = in vivo; cited from earlier work
COX-2 = biological target: T1, COX-2 (Homo sapiens, UniProt P35354); conditions: cellular systems; cited from earlier work
T1 sequence (P35354 18-604): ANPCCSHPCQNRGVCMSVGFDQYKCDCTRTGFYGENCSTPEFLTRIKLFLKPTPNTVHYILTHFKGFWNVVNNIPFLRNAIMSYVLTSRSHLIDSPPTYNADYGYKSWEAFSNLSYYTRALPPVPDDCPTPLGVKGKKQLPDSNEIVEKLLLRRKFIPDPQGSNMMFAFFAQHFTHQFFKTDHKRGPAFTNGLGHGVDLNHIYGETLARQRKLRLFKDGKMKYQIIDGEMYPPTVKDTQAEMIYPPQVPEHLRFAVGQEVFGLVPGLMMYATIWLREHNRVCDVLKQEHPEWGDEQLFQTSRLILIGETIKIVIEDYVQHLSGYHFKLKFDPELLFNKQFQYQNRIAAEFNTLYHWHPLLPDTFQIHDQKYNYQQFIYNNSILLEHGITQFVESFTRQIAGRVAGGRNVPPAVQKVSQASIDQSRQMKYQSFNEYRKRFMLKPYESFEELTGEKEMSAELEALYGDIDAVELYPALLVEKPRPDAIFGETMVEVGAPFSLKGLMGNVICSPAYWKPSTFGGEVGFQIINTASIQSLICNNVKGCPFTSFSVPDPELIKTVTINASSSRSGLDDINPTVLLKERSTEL

[5] = system: IDDM in low-dose STZ model; conditions: cited from earlier work
[6] = Tolerability of indomethacin in STZ-treated mice; conditions: indomethacin 3 mg/Kg/day with STZ 40 mg/Kg/day for 5 days; 5 mice/group
Description: In experiment 4, two groups of mice (5 mice/group) were treated with STZ (40 mg/Kg/day for 5 days). One group of these mice received daily treatments of indomethacin (3 mg/Kg/day). Indomethacin was dissolved in DMSO and an injection volume of 40 μl was used.

CN(N=O)C(=O)N[C@H]1C(O)O[C@H](CO)[C@@H](O)[C@@H]1O (mixture of isomers) [STZ, Streptozotocin]
Blood Glucose Level (STZ-induced IDDM [1]; 30 days following completion of STZ treatment, STZ 40 mg/Kg/day 5 days, NS-398 5 mg/Kg/day ip from day 1, continued 6 days after STZ, mean ± SD): 304.0 ± 91.6 mg/dL
glycated hemoglobin level (FIG. 2) (STZ-induced IDDM [1]; 30 days following treatment, STZ 40 mg/Kg/day 5 days ± NS-398): significantly elevated levels of glycated hemoglobin
histology of pancreatic islet β cells (aldehyde fuchsin, FIG. 3) (STZ-induced IDDM [1]; 35 days following multiple low-dose STZ ± NS-398): nearly completely destroyed
blood glucose level (FIG. 1) (STZ-induced IDDM [1]; experiment 1: STZ 40 mg/Kg/day ip 5 days, NS-398 10 mg/Kg/day, 11 injections from day 1, followed up to 28 days after cessation of NS-398): progressive rise in the blood glucose concentration
Blood Glucose Level (STZ-induced IDDM [2]; day 11 of treatment): 249.0 ± 50.2 mg/dL
Blood Glucose Level (STZ-induced IDDM [2]; day 19 of treatment): 446.7 mg/dL and 446.7 ± 106.1 mg/dL
Blood Glucose Level [3]: 311.1 ± 80.7 mg/dL

CS(=O)(=O)Nc1cc2c(cc1Oc1ccc(F)cc1F)C(=O)CC2 [Flosulide]
ID50 [4]: < 0.1 mg/kg

Cc1nc(C2CCCCC2)c(-c2ccc(S(N)(=O)=O)c(F)c2)o1 [JTE-522, 4-(4-cyclohexyl-2-methyloxazol-5-yl)-2-Fluorobenzene Sulfonamide]
IC50 (COX-2): 15.1 nM

CS(=O)(=O)Nc1cc2c(cc1Sc1ccc(F)cc1F)C(=O)CC2 [L-745,337, 5-methane sulfonamido-6-(2,4-difluorothiophenyl)-1-indanone]
ED50 [4]: 2 mg/kg
ID50 [4]: 0.4 mg/kg

Cc1ccc(-c2ncc(Cl)cc2-c2ccc(S(C)(=O)=O)cc2)cn1 [L-791,456, 5-Chloro-3(4-methylsulfonyl) phenyl-2-(2-methyl-5-pyridinyl) pyridine]
ED50 [4]: 0.6 mg/kg

CC(C)(C)[N+]([O-])=Cc1ccccc1 [PBN, phenyl N-tert-butylnitrone]
protection against IDDM [5]: protect against IDDM

CCSc1nnc(-c2cc(C(C)(C)C)c(O)c(C(C)(C)C)c2)s1 [PD164387]
ED40 [4]: 7.1 mg/kg

S=C(S)N1CCCC1 [PDTC, Pyrrolidine Dithiocarbamate]
protection from STZ-induced IDDM (STZ-induced IDDM [2]; PDTC daily from day 1 of STZ treatment): protected from STZ-induced IDDM
Blood Glucose Level (STZ-induced IDDM [2]; day 11 of treatment): 190.8 ± 23.2 mg/dL
Blood Glucose Level (STZ-induced IDDM [2]; day 19 of treatment): 199.6 mg/dL and 199.6 ± 35.6 mg/dL

CS(=O)(=O)c1ccc(C2=C(c3ccc(F)cc3)CCC2)cc1 [SC-57666, 1-[2-(4-Fluorophenyl)cyclopenten-1-yl]-4-(methylsulfonyl) benzene]
ED50 [4]: low

COc1ccc2c(c1)c(CC(=O)O)c(C)n2C(=O)c1ccc(Cl)cc1 [indomethacin]
mice that died during or following treatment [6]: Four out of five
